Source: US10352938B2, “Macrocyclic HOPO chelators” (LUMIPHORE, INC., priority 2009, dated 2019)
Where two headings read alike, the source gives them in different places. Marks after values point to notes of the source that are not given here. One block for each compound: values may come before it.

Columns and labels:
[1] = UV/visible absorption spectroscopy of Eu(III) complexes in TRIS buffer; type: physicochemical; settings: for λ: absorption maximum
Source text: Extinction Coefficient. A series of solutions of varied concentrations will be prepared from the solids based on mass and purity. The absorbance of each of these solutions at both 340 nm and at the appropriate acceptor wavelength will be measured and plotted according to Beer's Law (A=εcL where A is absorbance, ε is the extinction coefficient in M^−1 cm^−1, c is concentration, and L is path length in cm) with the fitted linear regression slope equal to […] on a plot of A as a function of C.
Each of the spectra have absorption maxima around 335-340 nm (FIG. 2). Those bands are composed of two electronic transitions; at higher energy, a purely π-π* transition and, at slightly lower energy (around ca. 320 nm), a π-π* transition with some n-π* character, as evidenced previously from TD-DFT calculations. […] This interaction gives maxima blue-shifting from 341 nm for [Eu(H(2,2)-1,2-HOPO)]^0 to 334 nm for [Eu(H(17O5,2)-1,2-HOPO)]^0 (as low as 332 nm for)[Eu(5LIN^Me-1,2HOPO)2]^0).

[2] = Luminescence quantum yield, emission and brightness in aqueous 0.1 M TRIS buffer; type: physicochemical; settings: for øTot: 0.1M TRIS buffer pH = 7.4; for Brightness: at maximum absorption, product of quantum yield and molar absorption coefficient, 0.1 M TRIS pH = 7.4; for overall quantum yield (in words): related to inner-sphere coordinated water
Description: Quantum Yield. Quantum yield will be measured using established methods. Fluorescence quantum yield Q are measured in diluted solution with an optical density lower than 0.1 using the following equation Qx/Qr=[Ar(λr)/Ax(λx)][nx^2/nr^2][Dx/Dr] were A is the absorbance at the excitation wavelength (λ), n the refractive index and D the integrated luminescence intensity. Subscripts “r” and “x” stand for reference and sample, respectively. References will be a quinine bisulfate in 1N sulfuric acid in aqueous solution (Qt=0.546)^1 and Ru(bpy)3 2C1 complexes in water solution (Qr=0.028)^2 for all complexes. A plot of integrated emission intensity (i.e. Dr) versus absorbance (i.e. Ar(λr)) yields a linear plot with a slope which can be equated to the reference quantum yield Qr. By analogy, for the unknown sample, a plot of integrated emission intensity (i.e. Dx) versus absorbance (i.e. Ax(λx)) yields a linear plot and Qx can then be evaluated. A minimum of at least two independent measurements will be averaged to derive a reliable value.

[3] = Stability titration (pEu) by competitive batch titration using DTPA; type: physicochemical; settings: for pEu: competitive batch titration using DTPA in 0.1M TRIS pH = 7.4 and 0.1M KCl; for pEu value as compared to DTPA / thermodynamic stability in aqueous solution: in words; for thermodynamic stability in aqueous solution: pH=7.4
Description: Stability Titrations. The general procedure used to determine the pEu values of ligands was adapted from an already described study using Gd and are similar to that already reported for other complexes. Different volumes of a standardized DTPA stock solution were added to solutions of constant ligand, metal, and electrolyte concentrations. Concentrations of complexed ligand in each solution were determined by subtracting the remaining luminescence intensity after addition of DTPA to the initial luminescence intensity at identical pH and those concentrations were used as references for the analysis. Stability of compounds towards mM concentrations of EDTA and divalent cations will be assessed by incubation of the proposed molecules at nM concentration at room temperature in aqueous solutions of test ions. Time Resolved Fluorescent signal will be assessed at the outset of experiment and monitored over a minimum of 24 hours to determine signal change.

[4] = Triplet excited state energy from phosphorescence of Gd complexes at 77K; type: physicochemical; settings: solid matrix (methanol/ethanol 1/4), using the Gd complexes
Description: Estimation of the energies of the ligand based triplet excited state were determined using the Gd(III) complexes. Gadolinium was chosen because it is a 4f^7 lanthanide cation having a similar 4f electronic configuration and size as the europium cation (4f^6), but lacking an accessible metal based low energy electronic excited state. At room temperature, only a broad weak emission centered between 380-400 nm can be seen for the Gd(III) complexes. […] At 77K, in solid matrix, an emission band at approx. 500 nm can be seen (FIG. 8). This emission, red-shifted compared to the singlet excited state, can be assigned to phosphorescence from the triplet excited state, lower in energy than the singlet excited state observed at room temperature. Selective time gated phosphorescence spectra (delay 0.1 ms) of the gadolinium complexes at 77K are depicted in FIG. 8.

[5] = Luminescence lifetimes (TRIS buffer, deuterated water, 77K) and inner sphere water number q; settings: for τ^D / τ (77K): first component; for q / q, second species: inner sphere water molecules; for q: first species
Description: Fluorescent decay signals can be acquired using an IBH DataStation Hub photon counting module and data analysis performed using the commercially available DAS 6 decay analysis software package from HORIBA Jobin Yvon IBH. Goodness of fit will be assessed by minimizing the reduced chi squared function, χ2, and a visual inspection of the weighted residuals. Each trace will use at least 10,000 points and the reported lifetime values result from at least three independent measurements.
In addition to the steady state emission spectra, the luminescence quantum yields and luminescence lifetimes of the Eu(III) complexes were also measured in aqueous solution with 0.1 M TRIS buffer pH=7.4 and in deuterated solution to estimate the number of inner sphere water molecule (i.e. q) using the improved Horrock's equations.
Luminescence lifetimes were also determined at 77K, in a solid matrix (Table 5), which have allowed us to determine whether back energy transfer between the donor triplet excited state and the acceptor manifold excited state of the lanthanide is present, or alternately whether quenching via low lying LMCT state occurs.

[6] = Calculation of Eu luminescence parameters (radiative lifetime, rate constants, efficiencies); type: physicochemical; settings: for η^Eu: efficiency of metal centred luminescence; for knr: non-radiative rate constant; for τrad: pure radiative luminescence lifetime, aqueous TRIS pH = 7.4; for kr: radiative rate constant; for η^sens: sensitization efficiency; for metal centred efficiency: TRIS buffer
Description: In this equation, the ηISC ηET term is termed the sensitization efficiency, ηsens (ηsens=ηISC ηET). All the luminescence parameters τR (the pure radiative luminescence lifetime), kR and knR (the radiative and non-radiative constant rate) can be deduced. These parameters were calculated for five of the octadentate complexes and the model complex that present only one species in solution at pH=7.4 and are reported in Table 6.

[7] = cited from earlier work; for λ: absorption maximum
[8] = cited from earlier work
[9] = cited from earlier work; remark: listed apart in the source
[10] = cited from earlier work; remark: listed apart in the source
[11] = extinction coefficient, in M-1·cm-1
[12] = solid matrix at 77K (methanol/ethanol 1/4)
[13] = TRIS buffer pH = 7.4, listed as [Eu(5LIN^Me-1,2HOPO)2]^0
[14] = listed as [Eu(5LIN^Me-1,2HOPO)2]^0
[15] = listed as [Eu(5LIN^Me-1,2-HOPO)2]
[16] = aqueous TRIS pH = 7.4, complexes with only one species

SMILES: O=C(NCCN(CCNC(=O)c1cccc(=O)n1O)CCOCCN(CCNC(=O)c1cccc(=O)n1O)CCNC(=O)c1cccc(=O)n1O)c1cccc(=O)n1O.[Eu] [Eu(H5-1)]
- ε ([1]; TRIS buffer pH = 7.4): 15,900 M^−1 · cm^−1
- λ^maxabs ([1]; TRIS buffer pH = 7.4): 337 nm
- λ [1]: 337 nm
- ε [1, 11]: 15,900
- øTot [2]: 0.067
- ϕTot ([2]; aqueous quantum yield): 0.067
- Brightness [2]: 1065 M⁻¹ cm⁻¹
- overall quantum yield (in words) [2]: low quantum yields
- pEu [3]: 19.2
- pEu value as compared to DTPA [3]: increased
- T0-0 (triplet excited state energy) [4]: 22,000 cm^−1
- τ^D ([5]; deuterated solution): 825; μs
- τ^D, second component ([5]; deuterated solution, second component): 462 μs
- τ^D ([5]; deuterated water): 825 μs
- τ^D, second component ([5]; deuterated water, second component): 438 μs
- τ ([5]; first (longer) component): 651 μs
- q ([5]; improved Horrock's equations): 0;
- q [5]: 0
- q, second species [5]: 0.8
- q, second species ([5]; listed as [Eu(H(5O,2)-1,2HOPO)]^0): 1.1
- τ, second component ([5]; second (shorter) component): 304 μs
- τ (77K) [5, 12]: 823; μs
- τ (77K), second component ([5]; solid matrix at 77K (methanol/ethanol 1/4), second component): 608 μs

SMILES: O=C(NCCN(CCCCN(CCNC(=O)c1cccc(=O)n1O)CCNC(=O)c1cccc(=O)n1O)CCNC(=O)c1cccc(=O)n1O)c1cccc(=O)n1O [Eu(5LiN^Me), reference compound]
- ε [1, 13]: 18,050 M^−1 · cm^−1
- λ^maxabs [1, 13]: 332 nm
- øTot [2, 14]: 0.173^b
- ϕTot ([2]; aqueous TRIS pH = 7.4, complexes with only one species, listed as [Eu(5LIN^Me-1,2-HOPO)2]): 0.173
- Brightness ([2]; listed as [Eu(5LIN^Me-1,2-HOPO)2]^0): 3400 M⁻¹ cm⁻¹
- Brightness [2, 14]: 3120 M⁻¹ cm⁻¹
- T0-0 (triplet excited state energy) [4, 14]: 22,010 cm^−1
- η^Eu [6, 15]: 0.412
- knr [6, 15]: 807 s⁻¹
- τrad [6, 15]: 1770 μs
- kr [6, 15]: 566 s⁻¹
- η^sens [6, 15]: 0.420
- λ [7]: 332 nm
- λ ([7]; see reference [47]): 332 nm
- ε ([7]; extinction coefficient): 18,750 M^1 cm^−1
- ε ([7]; see reference [47], in M-1·cm-1 (unit assumed)): 18,750
- ϕEu ([8]; quantum yield): 0.17
- ϕTot ([8]; see reference [47]): 0.17
- τ (D2O) ([9]; D2O, first component where two are printed): 1000 μs
- τ (H2O) ([9]; H2O, first (longer) component): 728 μs
- q ([9]; number of inner sphere water molecules, first species): 0.1
- q ([9]; see reference [47]): 0.1
- τ ([9]; see reference [47]): 728 μs
- τ^D ([9]; see reference [47]): 1000 μs
- pEu ([10]; competitive batch titration using DTPA in 0.1M TRIS pH = 7.4 and 0.1M KCl): 17.3
- pEu ([10]; see reference [47], DTPA competition, 0.1M TRIS pH = 7.4, 0.1M KCl): 17.3
- τ ([5]; aqueous TRIS pH = 7.4, listed as [Eu(5LIN^Me-1,2-HOPO)2]): 728 μs
- τ^D ([5]; deuterated solution, listed as [Eu(5LIN^Me-1,2HOPO)2]^0): 1000^b μs
- q ([5]; improved Horrock's equations, listed as [Eu(5LIN^Me-1,2HOPO)2]^0): 0.1^b
- τ (77K) ([5]; solid matrix at 77K (methanol/ethanol 1/4), listed as [Eu(5LIN^Me-1,2HOPO)2]^0): 860 μs

More lines, main results first:

- ε ([1]; TRIS buffer pH = 7.4): 15,200 M^−1 · cm^−1
- λ^maxabs ([1]; TRIS buffer pH = 7.4): 336 nm
- øTot [2]: 0.192
- ϕTot [2, 16]: 0.192
- Brightness [2]: 2920 M⁻¹ cm⁻¹
- thermodynamic stability in aqueous solution [3]: high thermodynamic stabilities
- T0-0 (triplet excited state energy) [4]: 22,020 cm^−1
- metal centred efficiency [6]: around 50%
- η^Eu [6]: 0.528
- knr [6]: 674 s⁻¹
- τrad [6]: 1326 μs
- kr [6]: 754 s⁻¹
- τ ([5]; aqueous TRIS pH = 7.4): 700 μs
- τ^D ([5]; deuterated solution): 961 μs
- q ([5]; improved Horrock's equations): 0.1
- τ (77K) [5, 12]: 819 μs
SMILES: O=C(NCCN(CCNC(=O)c1cccc(=O)n1O)CCOCCOCCOCCOCCN(CCNC(=O)c1cccc(=O)n1O)CCNC(=O)c1cccc(=O)n1O)c1cccc(=O)n1O.[Eu] [[Eu(H(14O4,2)-1,2HOPO)]^0]
- η^sens [6]: 0.364

- ε ([1]; TRIS buffer pH = 7.4): 15,350 M^−1 · cm^−1
- λ^maxabs ([1]; TRIS buffer pH = 7.4): 336 nm
- λ [1]: 336 nm
- ε [1, 11]: 15,350
- øTot [2]: 0.112
- ϕTot [2, 16]: 0.112
- ϕTot ([2]; aqueous quantum yield): 0.112
- Brightness [2]: 1720 M⁻¹ cm⁻¹
- overall quantum yield (in words) [2]: comparatively high quantum yields
- pEu [3]: 20.4
- pEu value as compared to DTPA [3]: increased
- T0-0 (triplet excited state energy) [4]: 22,320 cm^−1
- η^Eu [6]: 0.395
- knr [6]: 869 s⁻¹
- τrad [6]: 1770 μs
- kr [6]: 566 s⁻¹
- τ ([5]; aqueous TRIS pH = 7.4): 697 μs
- τ^D ([5]; deuterated solution): 913 μs
- τ^D ([5]; deuterated water): 913 μs
- τ ([5]; first (longer) component): 697 μs
- q ([5]; improved Horrock's equations): 0
- τ (77K) [5, 12]: 748 μs
SMILES: O=C(NCCN(CCNC(=O)c1cccc(=O)n1O)CCOCCOCCN(CCNC(=O)c1cccc(=O)n1O)CCNC(=O)c1cccc(=O)n1O)c1cccc(=O)n1O [Eu(H8-2)]
- sensitization process efficiency [6]: 28.4%
- η^sens [6]: 0.284

- ε ([1]; TRIS buffer pH = 7.4): 15,000 M^−1 · cm^−1
- λ^maxabs ([1]; TRIS buffer pH = 7.4): 336 nm
- λ^maxabs ([1]; TRIS buffer pH = 7.4, listed as [Eu(H(17O5,2)-1,2-HOPO)]^0): 334 nm
- øTot [2]: 0.196
- øTot ([2]; listed as [Eu(H(17O5,2)-1,2-HOPO)]^0): 0.197
- ϕTot [2, 16]: 0.196
- Brightness [2]: 2940 M⁻¹ cm⁻¹
- thermodynamic stability in aqueous solution [3]: high thermodynamic stabilities
- T0-0 (triplet excited state energy) [4]: 21,690 cm^−1
- metal centred efficiency [6]: around 50%
- η^Eu [6]: 0.522
- knr [6]: 679 s⁻¹
- τrad [6]: 1348 μs
- kr [6]: 742 s⁻¹
- τ ([5]; aqueous TRIS pH = 7.4): 704 μs
- τ^D ([5]; deuterated solution): 962 μs
- q ([5]; improved Horrock's equations): 0.1
- τ (77K) [5, 12]: 826 μs
SMILES: O=C(NCCN(CCNC(=O)c1cccc(=O)n1O)CCOCCOCCOCCOCCOCCN(CCNC(=O)c1cccc(=O)n1O)CCNC(=O)c1cccc(=O)n1O)c1cccc(=O)n1O.[Eu] [[Eu(H(17O5,2)-1,2HOPO)]^0]
- η^sens [6]: 0.375
